Test results from ChEMBL document CHEMBL4049384, “Synthesis and evaluation of an injectable everolimus prodrug” (Bioorg Med Chem Lett, 2017).
pIC50: −log10 of the molar value.

Key:
[1] = tested on: Mus musculus; assay: Toxicity in nude mouse xenografted with human OS-RC-2 cells assessed as death at 24 mg/kg, iv administered once weekly measured after 32 days; type: organism-based; conditions: in vivo, 768 h
[2] = tested on: Mus musculus; assay: Toxicity in nude mouse xenografted with human OS-RC2 cells assessed as body weight loss at 1.5 mg/kg administered three times a week intravenously and measured on Day 5 (reference value: 1.9 %); type: organism-based; conditions: in vivo, iv
[3] = tested on: OS-RC-2; assay: Antitumor activity against human OS-RC2 cells xenografted in nude mouse assessed as reduction in tumor volume at 24 mg/kg, iv administered once weekly measured on day 15 relative to control; type: functional
[4] = tested on: OS-RC-2; assay: Antitumor activity against human OS-RC2 cells xenografted in nude mouse assessed as reduction in tumor volume at 1.5 mg/kg, iv administered three times a week measured on day 5 relative to control; type: functional
[5] = tested on: OS-RC-2; assay: Antitumor activity against human OS-RC2 cells xenografted in nude mouse assessed as reduction in tumor volume at 1.5 mg/kg, iv administered three times a week measured on day 12 relative to control; type: functional
[6] = tested on: Blood; assay: Prodrug conversion in Sprague-Dawley rat blood assessed as everolimus level at 2.724 mg/kg, iv at 0.25 hrs post dose by HPLC method; type: ADME, organism-based; conditions: in vivo
[7] = tested on: Mus musculus; assay: Toxicity in nude mouse xenografted with human OS-RC2 cells assessed as body weight loss at 24 mg/kg, iv administered once weekly measured on day 19 (reference value: 23.1 %); type: organism-based; conditions: in vivo
[8] = tested on: Mus musculus; assay: Toxicity in nude mouse xenografted with human OS-RC2 cells assessed as body weight loss at 24 mg/kg, iv administered once weekly measured on day 8 (reference value: 8.5 %); type: organism-based; conditions: in vivo
[9] = tested on: OS-RC-2; assay: Antitumor activity against human OS-RC2 cells xenografted in nude mouse assessed as tumor volume at 24 mg/kg, iv administered once weekly and measured on day 1 (reference value: 167.51 +/- 17.09 mm3); type: functional
[10] = tested on: OS-RC-2; assay: Antitumor activity against human OS-RC2 cells xenografted in nude mouse assessed as reduction in tumor volume at 1.5 mg/kg, iv administered three times a week measured on day 29 relative to control; type: functional
[11] = tested on: Mus musculus; assay: Toxicity in nude mouse xenografted with human OS-RC2 cells assessed as body weight loss at 1.5 mg/kg administered three times a week intravenously and measured on Day 8 (reference value: 8.5 %); type: organism-based; conditions: in vivo, iv
[12] = tested on: Blood; assay: Prodrug conversion in Sprague-Dawley rat blood assessed as everolimus level at 2.724 mg/kg, iv at 3 hrs post dose by HPLC method; type: ADME, organism-based; conditions: in vivo
[13] = tested on: Mus musculus; assay: Toxicity in nude mouse xenografted with human OS-RC2 cells assessed as body weight loss at 24 mg/kg, iv administered once weekly measured on day 22 (reference value: 23.1 %); type: organism-based; conditions: in vivo
[14] = tested on: OS-RC-2; assay: Antitumor activity against human OS-RC2 cells xenografted in nude mouse assessed as reduction in tumor volume at 24 mg/kg, iv administered once weekly measured on day 8 relative to control; type: functional
[15] = tested on: OS-RC-2; assay: Antitumor activity against human OS-RC2 cells xenografted in nude mouse assessed as reduction in tumor volume at 1.5 mg/kg, iv administered three times a week measured on day 26 relative to control; type: functional
[16] = AUC (0 to t) in Sprague-Dawley rat at 2.724 mg/kg, iv; type: ADME, organism-based; conditions: in vivo
[17] = tested on: OS-RC-2; assay: Antitumor activity against human OS-RC2 cells xenografted in nude mouse assessed as tumor volume at 1.5 mg/kg, iv administered three times a week measured on day 1 (reference value: 167.51 +/- 17.09 mm3); type: functional
[18] = tested on: OS-RC-2; assay: Antitumor activity against human OS-RC2 cells xenografted in nude mouse assessed as tumor growth inhibition at 1.5 mg/kg, iv administered three times a week measured after 32 days relative to control; type: functional; conditions: OS-RC-2, iv, 768 h, read-out: TGI
[19] = tested on: Blood; assay: Prodrug conversion in Sprague-Dawley rat blood assessed as everolimus formation at 2 mg/kg, iv after 2 hrs by HPLC analysis; type: ADME, organism-based; conditions: in vivo
[20] = Prodrug conversion in phosphate buffered saline at pH 7.4 assessed as everolimus formation
[21] = tested on: Blood; assay: Prodrug conversion in Sprague-Dawley rat blood assessed as everolimus level at 2.724 mg/kg, iv at 1.5 hrs post dose by HPLC method; type: ADME, organism-based; conditions: in vivo
[22] = Tmax in Sprague-Dawley rat at 2.724 mg/kg, iv; type: ADME, organism-based; conditions: in vivo
[23] = tested on: Rattus norvegicus; assay: Prodrug conversion in rat assessed as everolimus formation by measuring everolimus AUC at 2 mg/kg, iv; type: ADME, organism-based; conditions: in vivo
[24] = tested on: Mus musculus; assay: Toxicity in nude mouse xenografted with human OS-RC-2 cells assessed as body weight loss at 24 mg/kg, iv administered once weekly measured on day 5 (reference value: 1.9%); type: organism-based; conditions: in vivo
[25] = tested on: OS-RC-2; assay: Antitumor activity against human OS-RC2 cells xenografted in nude mouse assessed as reduction in tumor volume at 1.5 mg/kg, iv administered three times a week measured on day 15 relative to control; type: functional
[26] = tested on: Mus musculus; assay: Toxicity in nude mouse xenografted with human OS-RC2 cells assessed as body weight loss at 24 mg/kg, iv administered once weekly measured on day 26 (reference value: 28.2 %); type: organism-based; conditions: in vivo
[27] = tested on: Mus musculus; assay: Toxicity in nude mouse xenografted with human OS-RC2 cells assessed as body weight loss at 1.5 mg/kg administered three times a week intravenously and measured on Day 26 (reference value: 28.2 %); type: organism-based; conditions: in vivo, iv
[28] = tested on: Blood; assay: Prodrug conversion in Sprague-Dawley rat blood assessed as everolimus level at 2.724 mg/kg, iv at 4 hrs post dose by HPLC method; type: ADME, organism-based; conditions: in vivo
[29] = tested on: DU-145; assay: Antiproliferative activity against human DU145 cells after 48 hrs by MTT assay; type: functional, cell-based; conditions: DU-145, 48 h
[30] = tested on: Blood; assay: Prodrug conversion in Sprague-Dawley rat blood assessed as everolimus level at 2.724 mg/kg, iv at 0.0833 hrs post dose by HPLC method; type: ADME, organism-based; conditions: in vivo, 5 min
[31] = tested on: Mus musculus; assay: Toxicity in nude mouse xenografted with human OS-RC-2 cells assessed as death at 1.5 mg/kg, iv administered three times a week measured after 32 days; type: organism-based; conditions: in vivo, 768 h
[32] = tested on: Mus musculus; assay: Toxicity in nude mouse xenografted with human OS-RC-2 cells assessed as body weight at 24 mg/kg, iv administered once weekly measured on day 1 (reference value: 20.4 +/- 0.33 g); type: organism-based; conditions: in vivo
[33] = tested on: Blood; assay: Prodrug conversion in Sprague-Dawley rat blood assessed as everolimus level at 2.724 mg/kg, iv at 8 hrs post dose by HPLC method; type: ADME, organism-based; conditions: in vivo
[34] = Half life in Sprague-Dawley rat at 2.724 mg/kg, iv; type: ADME, organism-based; conditions: in vivo

**Q.** Which results are given for `CO[C@H]1C[C@@H]2CC[C@@H](C)[C@@](O)(O2)C(=O)C(=O)N2CCCC[C@H]2C(=O)O[C@H]([C@H](C)C[C@@H]2CC[C@@H](OCCOC(=O)CSC[C@H](NC(=O)CC[C@H](N)C(=O)O)C(=O)NCC(=O)O)[C@H](OC)C2)CC(=O)[C@H](C)/C=C(\C)[C@@H](O)[C@@H](OC)C(=O)[C@H](C)C[C@H](C)\C=C/C=C/C=C/1C`?
**A.** Activity [1]: Non-Toxic; Activity [2]: 6.8%; T/C [3]: 0.41%; T/C [4]: 0.72%; T/C [5]: 0.6%; Drug metabolism [6]: 1995.0467 ng/mL; Activity [7]: 10.2%; Activity [8]: 5.3%; Activity [9]: 167.06 mm3; T/C [10]: 0.54%; Activity [11]: 9.2%; Drug metabolism [12]: 16.9443 ng/mL; Activity [13]: 10.2%; T/C [14]: 0.41%; T/C [15]: 0.52%; AUC(0-t) [16]: 2490 ng·h/mL; Activity [17]: 167.6 mm3; inhibition in vivo at 1.5 mg/kg [18]: 57.1%; Drug metabolism [19]: Metabolite_Detected; Drug metabolism [20]: Metabolite not detected; Drug metabolism [21]: 40.4142 ng/mL; Tmax [22]: 4.98 min; AUC [23]: 2500 ng·h/mL; Activity [24]: 6.2%; T/C [25]: 0.55%; Activity [26]: 10.2%; Activity [27]: 13.1%; Drug metabolism [28]: 13.8243 ng/mL; pIC50 [29]: 4.25; Drug metabolism [30]: 8421.1173 ng/mL; Activity [31]: Non-Toxic; Activity [32]: 21.28 g; Drug metabolism [33]: 6.8915 ng/mL; half-life [34]: 2.3 h
